Experimental data: PubChem BioAssay AID256 (DTP/NCI, 2004)
“And” between values parts separate entries of the source, which are not always exact repeats. Equal values may be shown once. Toxic doses and inconclusive results are not listed.

Tested on: CD2F1 mice, L1210 leukemia ip, survival T/C
Assay: NCI In Vivo Anticancer Drug Screen. Data for tumor model L1210 Leukemia (intraperitoneal) in CD2F1 (CDF1) mice
Details: higher = longer survival
Summary of the method: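 Transplantable tumor in mice; compound-treated vs vehicle-treated groups. Read-out = treated/control ratio of the measured endpoint.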

[1] = endpoint: mean survival time, dose: 100.0 mg/kg/injection, schedule: Q01DX001 (ip), vehicle: Klucel (hydroxypropylcellulose) (HPC)
[2] = endpoint: mean survival time, dose: 200.0 mg/kg/injection, schedule: Q01DX001 (ip), vehicle: Klucel (hydroxypropylcellulose) (HPC)
[3] = endpoint: mean survival time, dose: 400.0 mg/kg/injection, schedule: Q01DX001 (ip), vehicle: Klucel (hydroxypropylcellulose) (HPC)
[4] = endpoint: mean survival time, dose: 50.0 mg/kg/injection, schedule: Q01DX009 (ip), vehicle: saline with Tween-80
[5] = endpoint: mean survival time, dose: 100.0 mg/kg/injection, schedule: Q01DX009 (ip), vehicle: saline with Tween-80
[6] = endpoint: mean survival time, dose: 100.0 mg/kg/injection, schedule: Q04DX002 (ip), vehicle: saline with Tween-80
[7] = endpoint: mean survival time, dose: 200.0 mg/kg/injection, schedule: Q04DX002 (ip), vehicle: saline with Tween-80
[8] = endpoint: mean survival time, dose: 100.0 mg/kg/injection, schedule: Q04DX003 (ip), vehicle: saline
[9] = endpoint: mean survival time, dose: 200.0 mg/kg/injection, schedule: Q04DX003 (ip), vehicle: saline
[10] = endpoint: mean survival time, dose: 400.0 mg/kg/injection, schedule: Q04DX003 (ip), vehicle: saline
[11] = endpoint: mean survival time, dose: 12.5 mg/kg/injection, schedule: Q01DX005 (ip), vehicle: water
[12] = endpoint: mean survival time, dose: 25.0 mg/kg/injection, schedule: Q01DX005 (ip), vehicle: water
[13] = endpoint: mean survival time, dose: 50.0 mg/kg/injection, schedule: Q01DX005 (ip), vehicle: water
[14] = endpoint: mean survival time, dose: 100.0 mg/kg/injection, schedule: Q01DX005 (ip), vehicle: water
[15] = endpoint: mean survival time, dose: 100.0 mg/kg/injection, schedule: Q04DX003 (ip), vehicle: saline with Tween-80
[16] = endpoint: mean survival time, dose: 200.0 mg/kg/injection, schedule: Q01DX009 (ip), vehicle: saline with Tween-80
[17] = endpoint: mean survival time, dose: 200.0 mg/kg/injection, schedule: Q04DX003 (ip), vehicle: saline with Tween-80
[18] = endpoint: mean survival time, dose: 400.0 mg/kg/injection, schedule: Q04DX003 (ip), vehicle: saline with Tween-80

## COC(C(=O)C(O)C(C)O)C1CC2C=C3C=C(OC4CC(OC5CC(O)C(OC)C(C)O5)C(OC(C)=O)C(C)O4)C(C)C(=O)C3=C(O)C2=C(O)C1OC1CC(OC2CC(OC3CC(C)(O)C(O)C(C)O3)C(O)C(C)O2)C(O)C(C)O1 (centres undefined)
endpoint: mean survival time, dose: 0.25 mg/kg/injection, schedule: Q01DX009 (ip), vehicle: saline with Tween-80
  T/C: 92 % of control and 101 % of control and 104 % of control
endpoint: mean survival time, dose: 0.5 mg/kg/injection, schedule: Q01DX009 (ip), vehicle: saline with Tween-80
  T/C: 100 % of control and 101 % of control (2×)
endpoint: mean survival time, dose: 0.5 mg/kg/injection, schedule: Q01DX009 (ip), vehicle: saline
  T/C: 124 % of control
endpoint: mean survival time, dose: 1.0 mg/kg/injection, schedule: Q01DX009 (ip), vehicle: saline with Tween-80
  T/C: 101 % of control and 102 % of control
endpoint: mean survival time, dose: 1.0 mg/kg/injection, schedule: Q01DX009 (ip), vehicle: saline
  T/C: 98 % of control
endpoint: mean survival time, dose: 2.0 mg/kg/injection, schedule: Q01DX009 (ip), vehicle: saline with Tween-80
  T/C: 121 % of control and 108 % of control
endpoint: mean survival time, dose: 4.0 mg/kg/injection, schedule: Q01DX009 (ip), vehicle: saline
  T/C: 115 % of control
endpoint: mean survival time, dose: 8.0 mg/kg/injection, schedule: Q01DX009 (ip), vehicle: saline with Tween-80
  T/C: 189 % of control
endpoint: mean survival time, dose: 8.0 mg/kg/injection, schedule: Q01DX009 (ip), vehicle: saline
  T/C: 124 % of control

## Cn1c(N)c(N)c(=O)n(C)c1=O
endpoint: mean survival time, dose: 100.0 mg/kg/injection, schedule: Q04DX002 (ip), vehicle: saline
  T/C: 109 % of control
endpoint: mean survival time, dose: 200.0 mg/kg/injection, schedule: Q04DX002 (ip), vehicle: saline
  T/C: 102 % of control
endpoint: mean survival time, dose: 400.0 mg/kg/injection, schedule: Q04DX002 (ip), vehicle: saline
  T/C: 109 % of control

## CCOC(=O)C1(C(=O)OCC)C(C)CC(OCC)N1C(=O)c1cc2c(cc1[N+](=O)[O-])OCO2 (centres undefined)
[1]
  T/C: 100 % of control
[2]
  T/C: 100 % of control
[3]
  T/C: 100 % of control

## CCCCCC(=O)O[C@]1(C(C)=O)CC[C@H]2[C@@H]3CCC4=CC(=O)CC[C@]4(C)[C@H]3CC[C@@]21C
endpoint: median survival time, dose: 25.0 mg/kg/injection, schedule: Q01DX009 (ip), vehicle: saline with Tween-80
  T/C: 109 % of control
endpoint: median survival time, dose: 50.0 mg/kg/injection, schedule: Q01DX009 (ip), vehicle: saline with Tween-80
  T/C: 96 % of control
endpoint: median survival time, dose: 100.0 mg/kg/injection, schedule: Q01DX009 (ip), vehicle: saline with Tween-80
  T/C: 97 % of control
endpoint: median survival time, dose: 200.0 mg/kg/injection, schedule: Q01DX009 (ip), vehicle: saline with Tween-80
  T/C: 95 % of control
endpoint: median survival time, dose: 400.0 mg/kg/injection, schedule: Q01DX009 (ip), vehicle: saline with Tween-80
  T/C: 93 % of control

## COc1cc(OC)c(NC(=O)OCCOc2ccc(Cl)cc2Cl)cc1Cl
[4]
  T/C: 92 % of control
[5]
  T/C: 88 % of control

## CC(C)C1CCC(C)C(C(CC(=O)c2ccccc2)c2ccccc2)C1=O (centres undefined)
[6]
  T/C: 97 % of control
[7]
  T/C: 90 % of control
endpoint: mean survival time, dose: 400.0 mg/kg/injection, schedule: Q04DX002 (ip), vehicle: saline with Tween-80
  T/C: 101 % of control

## CCN(CC)C(=O)Nc1ccc(Cl)cc1
[6]
  T/C: 104 % of control
[7]
  T/C: 108 % of control

## O=[N+]([O-])c1ccc(Cl)c(S(=O)O)c1
endpoint: mean survival time, dose: 100.0 mg/kg/injection, schedule: Q01DX009 (ip), vehicle: saline
  T/C: 95 % of control
[8]
  T/C: 110 % of control
endpoint: mean survival time, dose: 200.0 mg/kg/injection, schedule: Q01DX009 (ip), vehicle: saline
  T/C: 106 % of control
[9]
  T/C: 102 % of control
endpoint: mean survival time, dose: 400.0 mg/kg/injection, schedule: Q01DX009 (ip), vehicle: saline
  T/C: 103 % of control
[10]
  T/C: 106 % of control

## O=C1c2ccccc2C(=O)c2c(Cl)cc(Cl)cc21
endpoint: mean survival time, dose: 75.0 mg/kg/injection, schedule: Q01DX001 (ip), vehicle: saline
  T/C: 103 % of control
endpoint: mean survival time, dose: 150.0 mg/kg/injection, schedule: Q01DX001 (ip), vehicle: saline
  T/C: 111 % of control
endpoint: mean survival time, dose: 300.0 mg/kg/injection, schedule: Q01DX001 (ip), vehicle: saline
  T/C: 102 % of control

## CCCCOc1ccc(Cl)cc1
[6]
  T/C: 90 % of control
[7]
  T/C: 87 % of control

## COc1cc(C)n2nnnc2n1
endpoint: mean survival time, dose: 100.0 mg/kg/injection, schedule: Q01DX001 (ip), vehicle: saline
  T/C: 107 % of control

## C=CCSc1ncnc2c1cnn2C1OC(CO)C(O)C1O (centres undefined)
[11]
  T/C: 102 % of control
[12]
  T/C: 98 % of control
[13]
  T/C: 98 % of control
[14]
  T/C: 102 % of control

## CC(C)[C@](O)(C(=O)OCC1=CCN2CC[C@@H](O)[C@@H]12)[C@H](C)O
endpoint: median survival time, dose: 12.5 mg/kg/injection, schedule: Q01DX009 (ip), vehicle: water
  T/C: 103 % of control
endpoint: median survival time, dose: 25.0 mg/kg/injection, schedule: Q01DX009 (ip), vehicle: water
  T/C: 100 % of control
endpoint: median survival time, dose: 50.0 mg/kg/injection, schedule: Q01DX009 (ip), vehicle: water
  T/C: 98 % of control
endpoint: median survival time, dose: 100.0 mg/kg/injection, schedule: Q01DX009 (ip), vehicle: water
  T/C: 122 % of control
endpoint: median survival time, dose: 200.0 mg/kg/injection, schedule: Q01DX009 (ip), vehicle: water
  T/C: 112 % of control
endpoint: median survival time, dose: 400.0 mg/kg/injection, schedule: Q01DX009 (ip), vehicle: water
  T/C: 112 % of control

## C[N+]12CCN(CC1)CC2
[8]
  T/C: 102 % of control
[9]
  T/C: 104 % of control
[10]
  T/C: 104 % of control

## COc1ccc2cc(O)ccc2c1
[5]
  T/C: 96 % of control
[15]
  T/C: 104 % of control
[16]
  T/C: 98 % of control
[17]
  T/C: 113 % of control
endpoint: mean survival time, dose: 400.0 mg/kg/injection, schedule: Q01DX009 (ip), vehicle: saline with Tween-80
  T/C: 100 % of control
[18]
  T/C: 90 % of control

## NC(N)=N/N=C/c1cc(Br)ccc1O
endpoint: mean survival time, dose: 37.5 mg/kg/injection, schedule: Q01DX009 (ip), vehicle: saline
  T/C: 105 % of control
endpoint: mean survival time, dose: 37.5 mg/kg/injection, schedule: Q04DX003 (ip), vehicle: saline
  T/C: 110 % of control
endpoint: mean survival time, dose: 75.0 mg/kg/injection, schedule: Q04DX003 (ip), vehicle: saline
  T/C: 114 % of control
endpoint: mean survival time, dose: 150.0 mg/kg/injection, schedule: Q04DX003 (ip), vehicle: saline
  T/C: 108 % of control

## Cn1c(Cl)nc2c(Cl)nc(Cl)nc21
endpoint: mean survival time, dose: 50.0 mg/kg/injection, schedule: Q04DX003 (ip), vehicle: Klucel (hydroxypropylcellulose) (HPC)
  T/C: 100 % of control
endpoint: mean survival time, dose: 100.0 mg/kg/injection, schedule: Q04DX003 (ip), vehicle: Klucel (hydroxypropylcellulose) (HPC)
  T/C: 104 % of control

## O=C(C=P(c1ccccc1)(c1ccccc1)c1ccccc1)c1ccc([N+](=O)[O-])cc1
endpoint: mean survival time, dose: 50.0 mg/kg/injection, schedule: Q01DX001 (ip), vehicle: Klucel (hydroxypropylcellulose) (HPC)
  T/C: 90 % of control
[1]
  T/C: 94 % of control
[2]
  T/C: 102 % of control
[3]
  T/C: 93 % of control

## CC(=O)NC1CCCCC1
[5]
  T/C: 104 % of control
[16]
  T/C: 102 % of control

## OCC1OC(n2ncc3c2ncn2ncnc32)C(O)C1O (centres undefined)
[11]
  T/C: 90 % of control
[12]
  T/C: 94 % of control
[13]
  T/C: 101 % of control
[14]
  T/C: 100 % of control
endpoint: mean survival time, dose: 200.0 mg/kg/injection, schedule: Q01DX005 (ip), vehicle: water
  T/C: 113 % of control

## CC(=O)NC(CSCC(=O)c1ccccc1)C(=O)O (centres undefined)
[15]
  T/C: 98 % of control
[17]
  T/C: 102 % of control
[18]
  T/C: 100 % of control

## CNOCc1ccc(C(=O)NC(C)C)cc1
endpoint: mean survival time, dose: 25.0 mg/kg/injection, schedule: Q01DX009 (ip), vehicle: other
  T/C: 98 % of control
endpoint: mean survival time, dose: 50.0 mg/kg/injection, schedule: Q01DX009 (ip), vehicle: other
  T/C: 100 % of control
endpoint: mean survival time, dose: 100.0 mg/kg/injection, schedule: Q01DX009 (ip), vehicle: other
  T/C: 98 % of control
endpoint: mean survival time, dose: 200.0 mg/kg/injection, schedule: Q01DX009 (ip), vehicle: other
  T/C: 100 % of control
endpoint: mean survival time, dose: 400.0 mg/kg/injection, schedule: Q01DX009 (ip), vehicle: other
  T/C: 118 % of control

## CC(C)(Cl)S(=O)c1ccccc1 (centres undefined)
[15]
  T/C: 93 % of control
[17]
  T/C: 93 % of control
[18]
  T/C: 95 % of control

## CC1=CC(=O)C(C(C)C)=CC1=O
endpoint: mean survival time, dose: 25.0 mg/kg/injection, schedule: Q01DX009 (ip), vehicle: saline with Tween-80
  T/C: 101 % of control
[4]
  T/C: 108 % of control
[15]
  T/C: 88 % of control
